Counter-ions that a name gives are not always drawn.
Key:
[1] = test system: influenza virus USSR/3/85; assay: Fetuin binding inhibition assay, influenza virus USSR/3/85
[2] = test system: influenza virus B/Hong Kong/8/73; assay: Fetuin binding inhibition assay, influenza virus B/Hong Kong/8/73; conditions: for A^i (absorbance): 492 nm
[3] = test system: influenza virus B/Singapore/222/79; assay: Fetuin binding inhibition assay, influenza virus B/Singapore/222/79; conditions: for A^i (absorbance): 492 nm
[4] = test system: influenza virus B/USSR/100/83; assay: Fetuin binding inhibition assay, influenza virus B/USSR/100/83; conditions: for A^i (absorbance): 492 nm
[5] = test system: influenza virus Port Chalmers/1/73; assay: Fetuin binding inhibition assay, influenza virus Port Chalmers/1/73; conditions: for A^i (absorbance): 492 nm
[6] = test system: influenza virus Victoria/3/75; assay: Fetuin binding inhibition assay, influenza virus Victoria/3/75; conditions: for A^i (absorbance): 492 nm
[7] = test system: influenza virus Texas/1/77; assay: Fetuin binding inhibition assay, influenza virus Texas/1/77; conditions: for A^i (absorbance): 492 nm
[8] = test system: influenza virus Philippines/2/82; assay: Fetuin binding inhibition assay, influenza virus Philippines/2/82; conditions: for A^i (absorbance): 492 nm
[9] = format: physicochemical; conditions: control solutions without enzyme
Procedure: Compound (IV) was incubated at 37° C. with Vibrio cholerae neuraminidase (450 U/ml) in 0.1M acetate buffer, pH 5.6, containing 0.9% NaCi and 0.1% CaCl2. Neuraminidase cleavage was determined on aliquots taken at intervals by TLC analysis (Merck silica gel plates in propanol/ethanol/25% aqueous ammonia, 2:2:1). Spots were developed by charring the plates with 3% H3 PO4 at 150° C. and quantitated densitometrically. The results are depicted in The FIGURE (v).

[10] = test system: influenza viruses; assay: Fetuin binding inhibition assay, influenza virus strains overall

SMILES: CC(=S)NC1C(O)CC(OCc2ccccc2)(C(=O)O)OC1C(O)C(O)CO [IV, benzyl 3,5-dideoxy5-thioacetamido-α-D-glycero-D-galacto-nonulopyranosidonicacid (sodium salt)]
- A^i (absorbance) ([1]; .64 mM sialoside, 492 nm): 0.43
- -lgKd ± SD ([1]; mean over concentrations): 3.8 ± 0.08
- -lgKd(i) ([2]; 1.28 mM sialoside): 2.6
- A^i (absorbance) ([2]; 1.28 mM sialoside): 0.46
- -lgKd(i) ([2]; 2.56 mM sialoside): 2.7
- A^i (absorbance) ([2]; 2.56 mM sialoside): 0.32
- -lgKd(i) ([2]; .64 mM sialoside): 2.5
- A^i (absorbance) ([2]; .64 mM sialoside): 0.54
- -lgKd ± SD ([2]; mean over concentrations): 2.6 ± 0.1
- -lgKd(i) ([3]; 1.28 mM sialoside): 3.6
- A^i (absorbance) ([3]; 1.28 mM sialoside): 0.18
- -lgKd(i) ([3]; 2.56 mM sialoside): 3.7
- A^i (absorbance) ([3]; 2.56 mM sialoside): 0.09
- -lgKd(i) ([3]; .32 mM sialoside): 3.2
- A^i (absorbance) ([3]; .32 mM sialoside): 0.56
- -lgKd(i) ([3]; .64 mM sialoside): 3.5
- A^i (absorbance) ([3]; .64 mM sialoside): 0.35
- -lgKd ± SD ([3]; mean over concentrations): 3.5 ± 0.2
- -lgKd(i) ([4]; 1.28 mM sialoside): 3.7
- A^i (absorbance) ([4]; 1.28 mM sialoside): 0.15
- -lgKd(i) ([4]; 2.56 mM sialoside): 3.7
- A^i (absorbance) ([4]; 2.56 mM sialoside): 0.08
- -lgKd(i) ([4]; .16 mM sialoside): 3.3
- A^i (absorbance) ([4]; .16 mM sialoside): 0.52
- -lgKd(i) ([4]; .32 mM sialoside): 3.5
- A^i (absorbance) ([4]; .32 mM sialoside): 0.40
- -lgKd(i) ([4]; .64 mM sialoside): 3.7
- A^i (absorbance) ([4]; .64 mM sialoside): 0.25
- -lgKd ± SD ([4]; mean over concentrations): 3.6 ± 0.2
- -lgKd(i) ([5]; 1.60 mM sialoside): 3.2
- A^i (absorbance) ([5]; 1.60 mM sialoside): 0.25
- -lgKd(i) ([5]; .05 mM sialoside): 3.2
- A^i (absorbance) ([5]; .05 mM sialoside): 0.55
- -lgKd(i) ([5]; .10 mM sialoside): 3.4
- A^i (absorbance) ([5]; .10 mM sialoside): 0.51
- -lgKd(i) ([5]; .20 mM sialoside): 3.4
- A^i (absorbance) ([5]; .20 mM sialoside): 0.47
- -lgKd(i) ([5]; .40 mM sialoside): 3.3
- A^i (absorbance) ([5]; .40 mM sialoside): 0.42
- -lgKd(i) ([5]; .80 mM sialoside): 3.1
- A^i (absorbance) ([5]; .80 mM sialoside): 0.40
- -lgKd ± SD ([5]; mean over concentrations): 3.3 ± 0.1
- -lgKd(i) ([6]; 1.60 mM sialoside): 3.3
- A^i (absorbance) ([6]; 1.60 mM sialoside): 0.35
- -lgKd(i) ([6]; .05 mM sialoside): 3.3
- A^i (absorbance) ([6]; .05 mM sialoside): 0.71
- -lgKd(i) ([6]; .10 mM sialoside): 3.3
- A^i (absorbance) ([6]; .10 mM sialoside): 0.69
- -lgKd(i) ([6]; .20 mM sialoside): 3.5
- A^i (absorbance) ([6]; .20 mM sialoside): 0.61
- -lgKd(i) ([6]; .40 mM sialoside): 3.4
- A^i (absorbance) ([6]; .40 mM sialoside): 0.56
- -lgKd(i) ([6]; .80 mM sialoside): 3.4
- A^i (absorbance) ([6]; .80 mM sialoside): 0.46
- -lgKd ± SD ([6]; mean over concentrations): 3.4 ± 0.08
- -lgKd(i) ([7]; 1.60 mM sialoside): 4.0
- A^i (absorbance) ([7]; 1.60 mM sialoside): 0.35
- -lgKd(i) ([7]; .05 mM sialoside): 3.8
- A^i (absorbance) ([7]; .05 mM sialoside): 1.0
- -lgKd(i) ([7]; .10 mM sialoside): 4.1
- A^i (absorbance) ([7]; .10 mM sialoside): 0.9
- -lgKd(i) ([7]; .20 mM sialoside): 4.0
- A^i (absorbance) ([7]; .20 mM sialoside): 0.83
- -lgKd(i) ([7]; .40 mM sialoside): 4.0
- A^i (absorbance) ([7]; .40 mM sialoside): 0.70
- -lgKd(i) ([7]; .80 mM sialoside): 3.9
- A^i (absorbance) ([7]; .80 mM sialoside): 0.55
- -lgKd ± SD ([7]; mean over concentrations): 4.0 ± 0.1
- -lgKd(i) ([8]; 1.60 mM sialoside): 4.1
- A^i (absorbance) ([8]; 1.60 mM sialoside): 0.20
- -lgKd(i) ([8]; .05 mM sialoside): 4.0
- A^i (absorbance) ([8]; .05 mM sialoside): 0.75
- -lgKd(i) ([8]; .10 mM sialoside): 4.4
- A^i (absorbance) ([8]; .10 mM sialoside): 0.59
- -lgKd(i) ([8]; .20 mM sialoside): 4.1
- A^i (absorbance) ([8]; .20 mM sialoside): 0.56
- -lgKd(i) ([8]; .40 mM sialoside): 4.1
- A^i (absorbance) ([8]; .40 mM sialoside): 0.43
- -lgKd(i) ([8]; .80 mM sialoside): 4.1
- A^i (absorbance) ([8]; .80 mM sialoside): 0.32
- -lgKd ± SD ([8]; mean over concentrations): 4.1
- Stability in the absence of enzyme [9]: at least 23 hours
- Inhibition of virus strains [10]: inhibits some virus strains better than its analog

— US5571836A, “Viral attachment inhibitors” (priority 1995, dated 1996)
